# In paper PMC10135567, “New Indole-3-Propionic Acid and 5-Methoxy-Indole Carboxylic Acid Derived Hydrazone Hybrids as Multifunctional Neuroprotectors” (Antioxidants, 2023):
# Columns and labels:
# [1] = tested on: isolated rat-brain synaptosomes; assay: Synaptosomal viability (MTT), substances administered alone; conditions: 100 µM
# Procedure: Preparation of the synaptosomes was carried out by multiple centrifugations using the Percoll gradient. Homogenization of the brains was performed in 10 volumes of cold buffer 1, which contained 5 mM HEPES and 0.32 M sucrose (pH = 7.4), followed by centrifugation at different speeds. For preparation of the gradient, the synaptosomes were isolated by Percoll reagent. Synaptosomes were resuspended and incubated in buffer 2, which contained 290 mM NaCl, 0.95 mM MgCl2x6H2O, 10 mM KCl, 2.4 mM CaCl2xH2O, 2.1 mM NaH2PO4, 44 mM HEPES, and 13 mM D-glucose. Incubations were performed in a 5% CO2 + 95% O2 atmosphere. The method of Lowry et al., using bovine serum albumin as a standard content, was applied for determination of synaptosomal protein [51].
# Synaptosomal viability was monitored based on a (3-(4,5)-dimethylthiazol-2-yl)-2,5-diphenyl tetrazolium bromide) assay. After incubation with the compounds, synaptosomes were treated with 0.5 mg/mL solution of (3-(4,5)-dimethylthiazol-2-yl)-2,5-diphenyl tetrazolium bromide) for 10 min at […]. Then, the synaptosomes were centrifuged twice at 15,000× g for 1 min. The resulting formazan crystals were dissolved in DMSO (dimethyl sulfoxide), and the extinction was determined by spectrophotometric measurements at 580–660 nm. […]
# [2] = tested on: SH-SY5Y cells; assay: H2O2-induced oxidative stress model in SH-SY5Y cells; format: cell-based, human; conditions: H2O2 1 mM 15 min
# Procedure: The SH-SY5Y cells were seeded in 96-well plates at a density of 3.5 × 10^4/well in 100 μL of RPMI supplemented with FBS for 24 h. Then, the cell medium was aspirated, and the cells were treated with different concentrations of the compounds—1, 10, and 50 µM for 90 min. Afterwards, the SH-SY5Y cells were washed with PBS and were exposed to hydrogen peroxide (H2O2) (1 mM in PBS for 15 min) to induce oxidative stress. All well contents were replaced by fresh culture medium and incubated for 24 h. MTT assay was used to evaluate the amount of attached viable cells. Negative controls (cells without H2O2 treatment) were considered as 100% protection and H2O2-treated cells as 0% protection.
# To evaluate the possible neuroprotective effects of the compounds, the SH-SY5Y cells were pre-treated with different concentrations (1, 10, 50 µM) for 90 min and then exposed to H2O2 (1 mM) for 15 min. The cell viability of all compounds was measured to verify their protective effect against the toxicity of hydrogen peroxide.
# [3] = tested on: SH-SY5Y cells; assay: MTT cell viability assay (cytotoxicity), SH-SY5Y
# Method in brief: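 SH-SY5Y cells seeded at 2 × 10^4 cells/well, adhered 24 h, then exposed to compounds (1–500 μM) for 24 h at 37 °C, 5% CO2; DMSO ≤0.5% as solvent control. MTT (0.5 mg/mL) added for 3 h, formazan dissolved, absorbance read at 570 nm; ≥6 wells per concentration.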
# [4] = tested on: bEnd3 cells; assay: MTT cell viability assay (cytotoxicity), bEnd3; format: cell-based, mouse; conditions: 24 h, 1–500 µM
# Method in brief: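 bEnd3 mouse brain endothelial cells (0.7 × 10^4/well, 24 h adherence) were exposed to compounds at 1–500 μM for 24 h, with 0.5% DMSO as solvent control. Viability was read by MTT reduction (0.5 mg/mL, 3 h, 37 °C) as absorbance at 570 nm.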
Compound,reduction of synaptosomal viability (SV) vs. non-treated synaptosomes [1] [%],protective effect: increased cell viability of SH-SY5Y vs. H2O2 group ([2]; 1 µM pre-treatment 90 min) [%],protective effect: increased cell viability of SH-SY5Y vs. H2O2 group ([2]; 10 µM pre-treatment 90 min) [%],protective effect: increased cell viability of SH-SY5Y vs. H2O2 group ([2]; 50 µM pre-treatment 90 min) [%],IC50 [3] [µM],IC50 [4] [µM]
COc1ccc2[nH]cc(CCNC(C)=O)c2c1 [Melatonin],20,19,42,64,,
N′-(4-Hydroxy-2-methoxybenzylidene)-3-(1H-indol-3-yl)propanehydrazide [Compound 3e],,,,,> 500,85.5
